# In patent US20250011404A1, “TARGETING APOE ENHANCES T-CELL KILLING IN CANCER IMMUNOTHERAPY” (Children's National Medical Center, priority 2021, published 2025):
# “Also recorded” adds a separate entry of the source.
# Key:
# [1] = tested on: vaccinated splenocytes co-cultured with Myc inhibited B16 tumor cells; experiment: IFNγ ELISA, vaccinated splenocytes co-cultured with immunogenic B16 cells; assay type: cell-based, mouse; details: vaccinated WT splenocytes + Myc-inhibited B16 cells, 48 hr, in presence of COG133, dose dependent
# Description: To further investigate the influence of tumor secreted apoE on immune cell function, immunogenic B16 tumor cells (B16 cells treated with Myc inhibitors (0.25 μM BET+0.25 μM JQ1 for 4 days) were irradiated at 60 Gray and co-cultured with naïve C57/BL6 splenocytes in the presence of either apoE mimetic COG133 at 0.3, 3 and 9 μM or anti-APOE blocking antibody at 1, 10 and 30 μg/ml concentrations. Prior work has shown the immunogenic effect of treating cancer cells with Myc inhibitors and irradiation. IFNγ production was quantified by ELISA at 48 h. Splenocytes produced high levels of IFNγ when co-cultured with Myc-inhibited immunogenic B16 cells as shown in FIGS. 3A-3C. Exposure of these cells to apoE mimetic COG133 repressed IFNγ production (6-fold reduction) (FIG. 3A), while the presence of Anti-APOE antibody enhanced IFNγ production (3-fold increase) (FIG. 3B). We also tested IFNγ production from vaccinated splenocytes following co-culture with treated and untreated B16 cells in the presence of COG 133. […] In addition to IFNγ, we also quantified other cytokine/chemokines using ProcartaPlex multiplex immunoassay. […] In addition, using ProcartaPlex multiplex immunoassay, we also quantified other cytokines/chemokines produced in the reaction. […] Readings were measured at 450 nm using the EnSpire 2300 Multilabel plate reader (Perkin Elmer, Waltham, Massachusetts, US).
# [2] = tested on: splenocytes co-cultured with Myc-inhibited B16 tumor cells; experiment: ProcartaPlex multiplex immunoassay of splenocyte/B16 co-cultures; assay type: cell-based, mouse
# Description: To further investigate the influence of tumor secreted apoE on immune cell function, immunogenic B16 tumor cells (B16 cells treated with Myc inhibitors (0.25 μM BET+0.25 μM JQ1 for 4 days) were irradiated at 60 Gray and co-cultured with naïve C57/BL6 splenocytes in the presence of either apoE mimetic COG133 at 0.3, 3 and 9 μM or anti-APOE blocking antibody at 1, 10 and 30 μg/ml concentrations. Prior work has shown the immunogenic effect of treating cancer cells with Myc inhibitors and irradiation. IFNγ production was quantified by ELISA at 48 h. Splenocytes produced high levels of IFNγ when co-cultured with Myc-inhibited immunogenic B16 cells as shown in FIGS. 3A-3C. Exposure of these cells to apoE mimetic COG133 repressed IFNγ production (6-fold reduction) (FIG. 3A), while the presence of Anti-APOE antibody enhanced IFNγ production (3-fold increase) (FIG. 3B). We also tested IFNγ production from vaccinated splenocytes following co-culture with treated and untreated B16 cells in the presence of COG 133. To obtain vaccinated splenocytes, 10^4 WT B16 tumor cells and 100 μg/ml anti-CTLA4 antibody were administered to C57BL/6 mice on day 0, and splenocytes were collected at day 7 after tumor cell inoculation. Compared with naïve splenocytes, vaccinated splenocytes produced dramatically greater level of IFNγ, especially when they were co-cultured with Myc inhibited B16 tumor cells. […] In addition to IFNγ, we also quantified other cytokine/chemokines using ProcartaPlex multiplex immunoassay. […] Within these 14 cytokines, four of them including IFN[…], IL6, IL18 and RANTES (CCL5) were suppressed after exposure to apoE peptide mimetic COG133 in a dose dependent manner (FIG. 17).
# Cell culture supernatant was collected after centrifuge at 1,200 rpm for 10 min at 4° C. The concentrations of the following immune molecules were determined using the mouse Cytokine & Chemokine 36-plex ProcartaPlex Panel, a magnetic bead-based multiplex immunoassay (Thermo Scientific) following our previous protocol(19). Briefly, cell culture supernatant samples were mixed with antibody-linked polystyrene beads on a 96-well plate and incubated at room temperature (RT) for 2 h on an orbital shaker at 500 rpm. After washing, plates were incubated with biotinylated detection antibody for 30 min at RT. Plates were then washed twice and then labeled beads were resuspended in streptavidin-PE. Each sample was measured in duplicate along with standards (8-point dilutions) and the buffer control. Plates were read using a Luminex Bio-plex 200 system (Bio-Rad Corp.) for quantitative analysis.
substance,measurement,setting,value
"COG133: a fragment of apoE peptide, which competes with the apoE holoprotein for binding the LDL receptors and acts as an apoE mimetic",IFNγ production from vaccinated splenocytes,[1],inhibited; also recorded: inhibitory; also recorded: significantly suppressed
same,IFNγ production from vaccinated splenocytes,[1]; listed as COG 133,suppressed
same,"IL-13, IL-4, IL22, IL18, MCP-1, RANTES and Gro-α, WT vaccinated splenocytes","[2]; co-culture with Myc-inhibited B16 cells 48 hr, multiplex immunoassay (FIG. 18)",suppression
same,"production of IFNγ, IL-6 and IL-18, naïve splenocytes","[2]; co-cultures with naïve splenocytes, 48 hr, multiplex ELISA (FIG. 17)",suppressive effect
same,"production of IFNγ, IL-6 and IL-18, vaccinated splenocytes","[2]; co-cultures with vaccinated splenocytes, 48 hr, multiplex ELISA (FIG. 17)",diminished in vaccinated splenocytes is still observed
same,"IFNγ, IL6, IL18 and RANTES (CCL5) production","[2]; splenocytes + Myc-inhibited B16 cells, multiplex immunoassay, dose dependent manner",suppressed
